Source: US9346839B2
Entries after “also recorded” stand apart in the source; their conditions may differ.

Key:
mAPP mice [1] = experiment: Morris water maze learning and memory in AD transgenic mice; format: in vivo; settings: for learning memory: i.p. injection; for swim strategy used to locate the hidden platform: representative swim paths, mAPP mice; for latency to find the hidden platform: treated AD mice compared to untreated AD mice; for number of crossings at the target location / percent of time spent in the target quadrant: treated mAPP mice vs untreated mAPP mice, probe trial
Description: Wild-type mice (Non Tg) were also administered Compound 8 (n=5) and vehicle (n=5). Each mouse was given four 60-second trials per day for six consecutive days to find the hidden platform in a Morris water maze.
Wild-type mice were also administered Compound 8 […]. Each mouse was given four 60-second trials per day for seven consecutive days to find the hidden platform in a Morris water maze.
Each mouse was given four 60-second trials per day for six consecutive days to find the hidden platform in a Morris water maze.
In addition, the effect of Compounds 4 and 8 on learning and memory of Alzheimer's Disease (AD) transgenic mice was evaluated. Six month and 9-14 month-old transgenic mice overexpressing a mutated form of the human amyloid precursor protein (mAPP mice) and their wild-type (non Tg) littermates were used in this study. […] Moreover, performance in a spatial MWM trial was evaluated using crossings over the platform area (an index of memory precision; Morris (1984) J. Neurosci. Methods 11:47-60), percent of time spent in target quadrant (an index of memory retrieval; Morris (1984) J. Neurosci. Methods 11:47-60), and swim paths.

mAPP mice [2] = experiment: Hippocampal long-term potentiation (LTP) in slices from treated mice; format: in vivo
Description: LTP was induced by theta-burst stimulation (TBS) 20 minutes after baseline recordings in hippocampal slices from Non-Tg mice treated with vehicle (n=9 slices from 3 mice), Non-Tg mice treated with Compound 8 (n=9 slices from 3 mice), mAPP mice treated with vehicle (n=8 slices from 3 mice), and mAPP mice treated with Compound 8 (n=8 slices from 3 mice). LTP is expressed as percentage potentiation of baseline (100%) (FIG. 5A).
LTP is expressed as percentage potentiation of baseline (100%) (FIG. 7A).
Synaptic failure in AD is largely reflected by impaired long-term synaptic plasticity in terms of long-term potentiation (LTP). […] Representative field excitatory post-synaptic potentials (fEPSP) waveforms are provided in FIGS. 5A and 7A and the residual potentiation from fEPSP slopes occurring over the last 5 minutes of LTP recording are provided in FIGS. 5B and 7B.

COc1ccc2nc(N[C@@H](c3ccc(O)cc3)P(=O)(OC)OC)sc2c1 (racemic) [Compound 8, Dimethyl ((4-hydroxyphenyl)((6-methoxybenzo[d]thiazol-2-yl)amino)methyl)phosphonate]
learning memory (mAPP mice [1]; 6-months old mAPP mice): improves learning memory | learning memory (mAPP mice [1]; 9-14-months old mAPP mice): improves learning memory | swim strategy used to locate the hidden platform (mAPP mice [1]): improvement in the swim strategy | latency to find the hidden platform (mAPP mice [1]): significantly shorter latency | number of crossings at the target location (mAPP mice [1]): significantly more | percent of time spent in the target quadrant (mAPP mice [1]): significantly more | hippocampal long-term potentiation (LTP) (mAPP mice [2]): impairments were diminished; also recorded: protective effects

COC(=O)c1cc([C@H](Nc2nc3ccc(OC)cc3s2)P(=O)(OC)OC)ccc1O [Compound 4, Methyl 5-((dimethoxyphosphoryl)((6-methoxybenzo[d]thiazol-2-yl)amino)methyl)-2-hydroxybenzoate]
learning memory (mAPP mice [1]; 9-months old mAPP mice): improves learning memory | swim strategy used to locate the hidden platform (mAPP mice [1]): improvement in the swim strategy | latency to find the hidden platform (mAPP mice [1]): significantly shorter latency | number of crossings at the target location (mAPP mice [1]): significantly more | percent of time spent in the target quadrant (mAPP mice [1]): significantly more | hippocampal long-term potentiation (LTP) (mAPP mice [2]): impairments were diminished; also recorded: protective effects
